Counter-ions that a name gives are not always drawn.
Key:
mouse spleen lymphocytes = experiment: Non-specific cytotoxicity assay (MTT), mouse spleen lymphocytes; assay type: cell-based; settings: mouse whole spleen lymphocytes, 48 hours, listed as Hydroxychloroquine Sulfate (Zhongxi Sunve)
Method: BALB/c mice were sacrificed by cervical dislocation, and spleens were aseptically excised to prepare whole spleen lymphocytes. The cells were adjusted to the required concentration. The compound concentrations started at 250 μM and was diluted with a 4-fold gradient to obtain 10 concentrations: 250, 62.5, 15.625, 3.906, 0.977, 0.244, 0.061, 0.015, 0.004 and 0.001 μM.
A suspension of mouse spleen lymphocytes was inoculated into a 96-well plate at 8×10^5/well, and the above 10 concentration gradients of the compound were added. A corresponding cell control (i.e. spleen lymphocyte culture system without compound) and a RPMI 1640 culture medium background control (blank culture medium control) were set up. The cells were cultured in a 37° C., 5% CO2 incubator for 48 hours. Four hours before the end of the culture, 20 μl of 5 mg/ml MTT solution was added, and the reaction continued until the end of the culture (i.e. the aforementioned 48 hours). The supernatant was aspirated and discarded, 200 μl DMSO was added to each well to dissolve the crystals. […]. The absorbance value was measured at […] with a microplate reader (Spectra Max 190, Molecular Devices).

[1] = system: spleen and lymph node lymphocytes in arthritic mice; experiment: Lymphocyte proliferation of spleen and lymph nodes of arthritic mice (3H-TdR incorporation); assay type: in vivo, mouse; settings: intragastric, cells stimulated ex vivo, FIG. 3
Method: Normal group, model group, positive medicament (1 mg/kg dexamethasone) group, naphthoquine phosphate (25, 50, 100 mg/kg) groups, hydroxychloroquine sulfate (100 mg/kg) group.
10 mg of Type II Collagen (CII) was swollen in 2.5 ml of 0.1 mol/L glacial acetic acid to prepare a 4 mg/ml CII solution. This solution was fully emulsified with an equal volume of CFA, and injected subcutaneously (50 μl) at the base of the tail of mice. After 21 days, 4 mg/ml CII solution was fully emulsified with an equal volume of IFA. This mixture was injected subcutaneously (50 μL) at the base of the tail of mice to boost the immune response.
Lymphocyte proliferation in each group was assessed using the ^3H-TdR incorporation method. Lymph nodes […] of mice in each group were isolated to prepare lymphocyte suspensions. The cells were inoculated into each well of a 96-well plate. ConA (final concentration: 5 μg/ml) and LPS (final concentration: 10 μg/ml) were added respectively, and cultured in a 37° C., 5% CO2 incubator for 48 hours. Eight hours before the end of the culture, 25 μl ^3H-TdR and anti-CD3 (final concentration: 5 μg/ml, pre-incubated overnight) were added to each well. The cells were cultured in a 37° C., 5% CO2 incubator for […]. […] 5 ml scintillation fluid was added, and the values of radioactive counts per minute were read on a Beta counter (2450 Microplate Counter, PerkinElmer).

[2] = system: adjuvant-induced arthritis in rats; experiment: Adjuvant-induced arthritis in rats: arthritis scoring and foot swelling; assay type: in vivo, rat; settings: FIG. 7
anti-dsDNA antibodies = experiment: Anti-double-stranded DNA antibodies in serum of MRL/lpr mice (ELISA); assay type: in vivo, mouse; settings: intragastric 25, 50 mg/kg, FIG. 8
Method: (§1) Normal group, model group, positive medicament (1 mg/kg prednisone) group, naphthoquine phosphate (25, 50 mg/kg) group, hydroxychloroquine sulfate (100 mg/kg) group.
50 μl double-stranded DNA solution (final concentration: 50 μg/ml) was added to each well of a 96-well ELISA plate for coating overnight. The plate was washed 4 times with 200 μl washing solution (1L PBS+500 μl Tween 20) per well. 100 μl 1% BSA was added to each well and blocked for 1 hour. The plate was washed 4 times with 200 μl washing solution per well. 50 μl diluted mouse serum samples of each group were added to each well and incubated for 2 hours. The plate was washed 4 times with 200 μl washing solution per well. Horseradish peroxidase (HRP)-conjugated IgG (H+L) secondary antibodies were added and incubated for 1 hour. The plate was washed 5 times with 200 μl washing solution per well. 50 μl tetramethylbenzidine (TMB) substrate was added, and 30 μl 1M sulfuric acid solution was added to terminate color development based on the condition of color development. Absorbance values at 450 nm/570 nm were read by a microplate reader (Spectra Max 190, Molecular Devices).
At the end of the experiment, eyeballs were removed to collect blood. ELISA method was used to detect the levels of anti-dsDNA antibodies in serum of experimental mice, and the anti-nuclear antibody kit was used to detect the levels of anti-nuclear antibodies. […]

anti-nuclear antibodies = experiment: Anti-nuclear antibodies in serum of MRL/lpr mice (ANA kit); assay type: in vivo, mouse; settings: intragastric 25, 50 mg/kg, FIG. 8
Method: as §1
At the end of the experiment, eyeballs were removed to collect blood. ELISA method was used to detect the levels of anti-dsDNA antibodies in serum of experimental mice, and the anti-nuclear antibody kit was used to detect the levels of anti-nuclear antibodies. […] (Note: * P value<0.05, ** P value<0.01, *** P value<0.001, compared with model group.)

Compound	CC50 (mouse spleen lymphocytes) [µM]	proliferation of spleen and lymph node lymphocytes in arthritic mice [1]	clinical arthritis scores of the experimental rats ([2]; intragastric 25, 50, 100 mg/kg)	extent of foot swelling in rats ([2]; intragastric 25, 50, 100 mg/kg)	therapeutic effect in arthritic rats compared with hydroxychloroquine sulfate ([2]; same dose (100 mg/kg))	levels of anti-dsDNA antibodies in serum (anti-dsDNA antibodies)	levels of anti-nuclear antibodies in serum (anti-nuclear antibodies)
CCN(CCO)CCCC(C)Nc1ccnc2cc(Cl)ccc12 (stereo not shown) [Hydroxychloroquine Sulfate, hydroxychloroquine sulfate]	25.2	–	–	–	–	–	–
CC(C)(C)NCc1cc(Nc2ccnc3cc(Cl)ccc23)c2c(c1O)CCCC2.O=P(O)(O)O.O=P(O)(O)O [Naphthoquine Phosphate, Naphthoquine phosphate]	–	significantly inhibit	improved	inhibited	superior to that of hydroxychloroquine sulfate at the same dose	significantly reduced	significantly reduced

From patent US20250332154A1, “USE OF NAPHTHOQUINE PHOSPHATE IN PREPARATION OF A MEDICAMENT FOR TREATING AUTOIMMUNE DISEASES” (SHANGHAI PHARMACEUTICALS INDUSTRY CO., LTD, priority 2022, published 2025)
